Reference: ChEMBL document CHEMBL1144986, “Binding of beta-carbolines at 5-HT(2) serotonin receptors” (Bioorg Med Chem Lett, 2003)

Key:
[1] = molecular target: T1, 5-hydroxytryptamine receptor 1A (Homo sapiens, UniProt P08908); test: Binding affinity towards 5-hydroxytryptamine 1A receptor
T1 sequence (P08908 whole entry): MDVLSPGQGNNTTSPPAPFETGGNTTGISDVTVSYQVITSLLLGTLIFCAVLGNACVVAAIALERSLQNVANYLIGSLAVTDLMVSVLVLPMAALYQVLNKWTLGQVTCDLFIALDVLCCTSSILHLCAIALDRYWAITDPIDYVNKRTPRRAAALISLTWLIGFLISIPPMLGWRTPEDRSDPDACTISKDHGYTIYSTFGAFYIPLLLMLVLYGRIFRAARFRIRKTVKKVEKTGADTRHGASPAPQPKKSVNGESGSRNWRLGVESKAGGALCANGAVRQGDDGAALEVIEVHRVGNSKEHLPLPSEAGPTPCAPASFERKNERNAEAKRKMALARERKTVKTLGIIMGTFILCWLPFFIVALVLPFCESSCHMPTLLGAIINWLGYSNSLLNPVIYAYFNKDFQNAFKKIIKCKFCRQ

[2] = molecular target: 5-hydroxytryptamine receptor 5A (Homo sapiens, UniProt P47898); test: Binding affinity towards 5-HT5A receptor
[3] = molecular target: 5-hydroxytryptamine receptor 7 (Homo sapiens, UniProt P34969); test: Binding affinity towards 5-hydroxytryptamine 7 receptor
[4] = molecular target: Muscarinic acetylcholine receptor; test: Binding affinity towards Muscarinic receptor; assay type: protein assay
[5] = molecular target: Alpha-1B adrenergic receptor (Homo sapiens, UniProt P35368); test: Binding affinity towards Alpha-1B adrenergic receptor
[6] = molecular target: Alpha-2C adrenergic receptor (Homo sapiens, UniProt P18825); test: Binding affinity towards Alpha-2C adrenergic receptor
[7] = molecular target: Alpha-2A adrenergic receptor (Homo sapiens, UniProt P08913); test: Binding affinity towards alpha-2A-Adrenergic receptor
[8] = molecular target: T2, 5-hydroxytryptamine receptor 2A (Rattus norvegicus, UniProt P14842); test: Binding affinity towards cloned rat 5-hydroxytryptamine 2A receptor by [3H]ketanserin displacement.
[9] = molecular target: T3, 5-hydroxytryptamine receptor 2C (Homo sapiens, UniProt P28335); test: Binding affinity towards 5-hydroxytryptamine 2C receptor
T3 sequence (P28335 whole entry): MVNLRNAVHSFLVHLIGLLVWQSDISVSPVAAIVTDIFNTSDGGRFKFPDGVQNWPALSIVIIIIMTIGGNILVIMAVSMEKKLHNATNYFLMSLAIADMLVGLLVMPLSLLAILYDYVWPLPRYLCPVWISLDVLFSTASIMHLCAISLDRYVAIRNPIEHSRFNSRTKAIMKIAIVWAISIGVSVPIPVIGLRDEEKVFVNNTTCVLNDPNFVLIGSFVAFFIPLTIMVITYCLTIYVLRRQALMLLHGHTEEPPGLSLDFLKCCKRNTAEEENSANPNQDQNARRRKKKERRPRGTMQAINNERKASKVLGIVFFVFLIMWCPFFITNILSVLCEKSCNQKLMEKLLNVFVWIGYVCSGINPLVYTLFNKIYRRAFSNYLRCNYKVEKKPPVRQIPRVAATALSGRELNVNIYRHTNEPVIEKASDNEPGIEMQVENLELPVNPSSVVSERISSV

[10] = molecular target: Sodium-dependent serotonin transporter (Homo sapiens, UniProt P31645); test: Binding affinity towards Serotonin transporter
[11] = molecular target: T2, 5-hydroxytryptamine receptor 2A; test: Binding affinity towards 5-hydroxytryptamine 2A receptor
[12] = molecular target: Alpha-1A adrenergic receptor (Homo sapiens, UniProt P35348); test: Binding affinity towards Alpha-1A adrenergic receptor
[13] = molecular target: Beta-2 adrenergic receptor (Homo sapiens, UniProt P07550); test: Binding affinity towards Beta-2A adrenergic receptor
[14] = molecular target: Serotonin 3 (5-HT3) receptor; test: Binding affinity towards 5-HT3 receptor; assay type: protein-complex assay
[15] = molecular target: T4, 5-hydroxytryptamine receptor 2C (Rattus norvegicus, UniProt P08909); test: Binding affinity towards cloned rat 5-hydroxytryptamine 2C receptor from fundus tissue by [3H]mesulergine displacement.
T4 sequence (P08909 whole entry): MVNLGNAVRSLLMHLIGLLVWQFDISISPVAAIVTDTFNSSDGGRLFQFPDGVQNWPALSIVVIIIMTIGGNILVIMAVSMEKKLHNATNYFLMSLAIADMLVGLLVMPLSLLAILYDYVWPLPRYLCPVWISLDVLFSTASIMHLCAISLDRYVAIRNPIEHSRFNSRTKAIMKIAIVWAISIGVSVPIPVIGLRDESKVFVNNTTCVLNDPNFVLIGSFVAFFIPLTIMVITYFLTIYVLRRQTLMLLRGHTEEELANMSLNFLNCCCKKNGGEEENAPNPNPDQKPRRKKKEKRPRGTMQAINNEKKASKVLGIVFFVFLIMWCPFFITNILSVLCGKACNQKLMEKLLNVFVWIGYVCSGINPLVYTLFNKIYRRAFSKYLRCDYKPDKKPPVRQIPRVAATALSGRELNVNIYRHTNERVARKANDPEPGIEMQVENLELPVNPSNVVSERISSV

[16] = molecular target: 5-hydroxytryptamine receptor 6 (Homo sapiens, UniProt P50406); test: Binding affinity towards human 5-hydroxytryptamine 6 receptor
[17] = molecular target: Beta-1 adrenergic receptor (Homo sapiens, UniProt P08588); test: Binding affinity towards Beta-1A adrenergic receptor
[18] = molecular target: Alpha-2B adrenergic receptor (Homo sapiens, UniProt P18089); test: Binding affinity towards Alpha-2B adrenergic receptor
[19] = molecular target: 5-hydroxytryptamine receptor 1B (Homo sapiens, UniProt P28222); test: Binding affinity towards 5-hydroxytryptamine 1B receptor
[20] = molecular target: T2, 5-hydroxytryptamine receptor 2A; test: Binding affinity for rat 5-hydroxytryptamine 2A receptor using [3H]DOB
[21] = molecular target: 5-hydroxytryptamine receptor 1D (Homo sapiens, UniProt P28221); test: Binding affinity towards 5-hydroxytryptamine 1D receptor
[22] = molecular target: Muscarinic acetylcholine receptor; test: Binding affinity towards Muscarinic acetylcholine receptor; assay type: protein assay
Dopamine receptor = test: Binding affinity towards Dopamine receptor; assay type: protein assay
[23] = molecular target: Sodium-dependent dopamine transporter (Bos taurus, UniProt P27922); test: Binding affinity towards DAT (bovine)
[24] = molecular target: Sodium-dependent noradrenaline transporter (Homo sapiens, UniProt P23975); test: Binding affinity towards NET
[25] = molecular target: GABA-A receptor; anion channel; test: Binding affinity towards GABA-A benzodiazepine receptor; assay type: protein-complex assay, Rattus norvegicus
[26] = molecular target: T2, 5-hydroxytryptamine receptor 2A; test: Binding affinity towards cloned rat Inhibition of binding towards 5-hydroxytryptamine 2A receptor at 100 nM concentration was determined using [3H]ketanserin as radioligand
[27] = molecular target: T2, 5-hydroxytryptamine receptor 2A; test: Binding affinity towards cloned rat Inhibition of binding towards 5-hydroxytryptamine 2A receptor at 100 nM concentration was determined using [3H]DOB as radioligand
[28] = molecular target: T2, 5-hydroxytryptamine receptor 2A; test: Binding affinity towards cloned rat 5-hydroxytryptamine 2A receptor from fundus tissue was determined using [3H]mesulergine as radioligand

Chain of 5-hydroxytryptamine receptor 1B (P28222 whole entry): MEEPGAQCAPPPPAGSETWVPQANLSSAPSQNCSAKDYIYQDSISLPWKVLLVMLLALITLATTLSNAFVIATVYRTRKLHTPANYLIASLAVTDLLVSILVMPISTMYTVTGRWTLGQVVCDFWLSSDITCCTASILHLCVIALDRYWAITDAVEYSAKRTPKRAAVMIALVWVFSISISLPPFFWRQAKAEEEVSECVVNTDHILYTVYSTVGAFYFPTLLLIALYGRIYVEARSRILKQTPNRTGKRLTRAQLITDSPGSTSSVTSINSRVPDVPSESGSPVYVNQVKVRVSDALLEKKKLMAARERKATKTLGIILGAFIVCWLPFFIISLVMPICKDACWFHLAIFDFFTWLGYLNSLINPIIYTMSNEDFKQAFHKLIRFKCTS
Chain of Sodium-dependent serotonin transporter (P31645 whole entry): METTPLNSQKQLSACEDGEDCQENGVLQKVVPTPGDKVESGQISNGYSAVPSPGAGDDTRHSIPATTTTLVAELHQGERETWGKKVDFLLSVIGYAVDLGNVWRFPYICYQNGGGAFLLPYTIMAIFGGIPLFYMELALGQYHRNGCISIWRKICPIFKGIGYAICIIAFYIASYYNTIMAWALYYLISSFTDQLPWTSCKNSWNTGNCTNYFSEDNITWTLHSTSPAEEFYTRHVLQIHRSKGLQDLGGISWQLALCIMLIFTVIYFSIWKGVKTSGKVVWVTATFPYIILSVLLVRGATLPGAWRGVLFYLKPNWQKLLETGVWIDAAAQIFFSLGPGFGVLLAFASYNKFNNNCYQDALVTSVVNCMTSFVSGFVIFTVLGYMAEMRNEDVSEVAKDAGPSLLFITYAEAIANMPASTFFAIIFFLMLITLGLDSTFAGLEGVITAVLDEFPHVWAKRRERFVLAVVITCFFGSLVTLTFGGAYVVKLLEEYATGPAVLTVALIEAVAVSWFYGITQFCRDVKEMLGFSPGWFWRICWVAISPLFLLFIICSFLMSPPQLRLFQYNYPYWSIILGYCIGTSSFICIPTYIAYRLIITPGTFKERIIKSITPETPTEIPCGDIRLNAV
Chain of 5-hydroxytryptamine receptor 6 (P50406 whole entry): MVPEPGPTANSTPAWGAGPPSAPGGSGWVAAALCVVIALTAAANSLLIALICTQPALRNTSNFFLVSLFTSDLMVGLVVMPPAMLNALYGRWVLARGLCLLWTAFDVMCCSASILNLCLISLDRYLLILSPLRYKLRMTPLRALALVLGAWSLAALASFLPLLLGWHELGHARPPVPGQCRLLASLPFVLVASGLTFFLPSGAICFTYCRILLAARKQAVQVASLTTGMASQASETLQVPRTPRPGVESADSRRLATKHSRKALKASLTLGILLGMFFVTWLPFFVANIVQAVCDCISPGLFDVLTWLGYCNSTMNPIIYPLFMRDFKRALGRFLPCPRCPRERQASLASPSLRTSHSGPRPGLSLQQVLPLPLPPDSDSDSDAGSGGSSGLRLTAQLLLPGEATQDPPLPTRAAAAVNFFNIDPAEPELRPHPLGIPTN
T2 sequence (P14842 whole entry): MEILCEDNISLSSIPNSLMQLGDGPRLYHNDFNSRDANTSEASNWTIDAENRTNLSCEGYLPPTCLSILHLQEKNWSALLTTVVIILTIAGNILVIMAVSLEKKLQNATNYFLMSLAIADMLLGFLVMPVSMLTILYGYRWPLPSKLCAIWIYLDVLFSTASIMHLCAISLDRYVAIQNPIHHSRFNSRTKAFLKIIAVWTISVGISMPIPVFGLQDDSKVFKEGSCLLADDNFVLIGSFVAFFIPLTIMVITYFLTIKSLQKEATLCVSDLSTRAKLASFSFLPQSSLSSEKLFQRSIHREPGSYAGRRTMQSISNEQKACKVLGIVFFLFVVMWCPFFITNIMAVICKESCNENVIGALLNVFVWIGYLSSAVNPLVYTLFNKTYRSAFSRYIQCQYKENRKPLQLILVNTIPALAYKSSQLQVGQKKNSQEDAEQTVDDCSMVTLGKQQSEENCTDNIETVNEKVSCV
Chain of Sodium-dependent noradrenaline transporter (P23975 whole entry): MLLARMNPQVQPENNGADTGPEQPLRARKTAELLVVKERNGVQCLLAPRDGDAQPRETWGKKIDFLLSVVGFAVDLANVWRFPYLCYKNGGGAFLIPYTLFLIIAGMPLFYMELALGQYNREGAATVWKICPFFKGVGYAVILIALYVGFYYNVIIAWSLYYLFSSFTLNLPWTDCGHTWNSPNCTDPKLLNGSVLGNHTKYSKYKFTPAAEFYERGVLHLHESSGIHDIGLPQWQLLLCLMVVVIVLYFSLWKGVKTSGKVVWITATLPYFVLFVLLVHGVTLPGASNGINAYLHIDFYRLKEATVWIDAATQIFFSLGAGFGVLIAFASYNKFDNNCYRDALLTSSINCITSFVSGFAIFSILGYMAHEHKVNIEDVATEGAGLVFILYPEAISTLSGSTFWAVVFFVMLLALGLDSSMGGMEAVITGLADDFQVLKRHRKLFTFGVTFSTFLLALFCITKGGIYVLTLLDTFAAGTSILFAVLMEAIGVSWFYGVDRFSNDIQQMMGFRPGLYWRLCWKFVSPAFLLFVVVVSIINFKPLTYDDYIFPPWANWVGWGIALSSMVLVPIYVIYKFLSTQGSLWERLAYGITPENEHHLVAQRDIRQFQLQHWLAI
Chain of 5-hydroxytryptamine receptor 7 (P34969 whole entry): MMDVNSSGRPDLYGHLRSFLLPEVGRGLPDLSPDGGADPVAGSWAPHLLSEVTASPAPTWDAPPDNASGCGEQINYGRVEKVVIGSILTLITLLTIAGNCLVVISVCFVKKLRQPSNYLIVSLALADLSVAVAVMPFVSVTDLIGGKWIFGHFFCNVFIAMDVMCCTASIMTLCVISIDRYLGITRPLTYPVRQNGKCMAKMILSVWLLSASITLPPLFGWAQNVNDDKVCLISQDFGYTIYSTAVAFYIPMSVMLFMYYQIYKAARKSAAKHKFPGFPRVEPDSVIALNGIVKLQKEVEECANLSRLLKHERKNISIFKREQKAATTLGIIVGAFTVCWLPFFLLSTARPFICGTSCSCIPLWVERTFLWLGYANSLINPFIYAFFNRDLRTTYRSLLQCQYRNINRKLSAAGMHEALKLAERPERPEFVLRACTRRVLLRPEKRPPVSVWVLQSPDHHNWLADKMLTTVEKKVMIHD
Chain of Sodium-dependent dopamine transporter (P27922 whole entry): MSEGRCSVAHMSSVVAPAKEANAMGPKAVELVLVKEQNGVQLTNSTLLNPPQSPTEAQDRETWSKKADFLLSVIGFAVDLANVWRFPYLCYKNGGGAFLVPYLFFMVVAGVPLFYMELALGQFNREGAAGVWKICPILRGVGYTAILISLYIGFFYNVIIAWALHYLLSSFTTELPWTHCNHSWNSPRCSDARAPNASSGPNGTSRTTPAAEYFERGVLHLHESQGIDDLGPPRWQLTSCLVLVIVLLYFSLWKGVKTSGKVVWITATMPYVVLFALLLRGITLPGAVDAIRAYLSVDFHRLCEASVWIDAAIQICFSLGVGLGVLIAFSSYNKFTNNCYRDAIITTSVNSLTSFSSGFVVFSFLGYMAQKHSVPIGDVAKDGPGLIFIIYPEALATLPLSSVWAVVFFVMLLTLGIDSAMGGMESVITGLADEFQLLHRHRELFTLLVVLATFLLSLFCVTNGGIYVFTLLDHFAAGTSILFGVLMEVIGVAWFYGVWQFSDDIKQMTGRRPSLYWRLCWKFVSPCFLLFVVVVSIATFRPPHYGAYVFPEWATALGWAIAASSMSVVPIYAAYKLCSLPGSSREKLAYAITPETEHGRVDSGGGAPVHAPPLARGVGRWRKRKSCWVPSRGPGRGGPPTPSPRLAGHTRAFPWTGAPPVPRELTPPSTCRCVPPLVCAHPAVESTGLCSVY
Chain of 5-hydroxytryptamine receptor 1D (P28221 whole entry): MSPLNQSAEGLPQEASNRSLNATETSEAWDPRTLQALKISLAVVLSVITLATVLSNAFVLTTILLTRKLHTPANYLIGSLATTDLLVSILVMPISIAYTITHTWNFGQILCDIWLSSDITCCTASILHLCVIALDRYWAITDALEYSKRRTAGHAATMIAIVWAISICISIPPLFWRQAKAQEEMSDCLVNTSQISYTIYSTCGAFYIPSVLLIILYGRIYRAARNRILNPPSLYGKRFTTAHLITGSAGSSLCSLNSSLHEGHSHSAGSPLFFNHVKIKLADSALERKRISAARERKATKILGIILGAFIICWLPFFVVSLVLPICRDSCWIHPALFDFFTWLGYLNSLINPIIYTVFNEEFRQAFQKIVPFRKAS
Chain of 5-hydroxytryptamine receptor 5A (P47898 whole entry): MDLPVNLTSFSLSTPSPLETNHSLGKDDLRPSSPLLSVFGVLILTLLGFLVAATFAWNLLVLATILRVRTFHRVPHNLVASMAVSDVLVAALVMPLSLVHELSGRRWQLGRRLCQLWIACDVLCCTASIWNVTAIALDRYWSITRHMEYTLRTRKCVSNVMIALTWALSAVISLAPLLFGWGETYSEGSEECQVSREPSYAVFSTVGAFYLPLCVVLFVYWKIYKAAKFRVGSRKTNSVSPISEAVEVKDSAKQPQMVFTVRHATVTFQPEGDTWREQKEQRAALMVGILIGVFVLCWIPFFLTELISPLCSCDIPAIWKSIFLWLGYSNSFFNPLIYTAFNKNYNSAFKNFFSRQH
Chain of Alpha-2C adrenergic receptor (P18825 whole entry): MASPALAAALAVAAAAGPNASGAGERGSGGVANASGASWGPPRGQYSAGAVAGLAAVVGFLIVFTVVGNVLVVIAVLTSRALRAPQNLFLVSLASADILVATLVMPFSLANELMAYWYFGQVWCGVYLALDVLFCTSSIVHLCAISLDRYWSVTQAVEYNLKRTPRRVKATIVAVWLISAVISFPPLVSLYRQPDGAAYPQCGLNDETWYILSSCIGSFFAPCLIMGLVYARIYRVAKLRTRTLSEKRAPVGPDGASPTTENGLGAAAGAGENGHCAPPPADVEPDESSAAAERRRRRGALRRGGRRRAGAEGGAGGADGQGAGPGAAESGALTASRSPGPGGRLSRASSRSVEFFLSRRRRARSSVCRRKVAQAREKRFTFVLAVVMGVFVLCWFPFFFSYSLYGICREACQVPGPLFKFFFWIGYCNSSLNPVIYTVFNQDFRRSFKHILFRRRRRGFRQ

COc1ccc2c3c([nH]c2c1)CNCC3
Ki [1]: > 10 µM
Ki [2]: > 10 µM
Ki [3]: 1400 nM
Ki [4]: > 10 µM
Ki [5]: > 10 µM
Ki [6]: 1740 nM
Ki [7]: 1370 nM
Ki [8]: 4620 nM
Ki [9]: > 10000 nM
Ki [10]: > 10 µM
Ki [11]: 4.62 µM
Ki [12]: > 10 µM
Ki [13]: > 10 µM
Ki [14]: > 10 µM
Ki [15]: > 10000 nM
Ki [16]: > 10000 nM
Ki [17]: > 10 µM
Ki [18]: 140 nM
Ki [19]: > 10 µM
Ki [20]: 2200 nM
Ki [21]: > 10 µM

Brc1ccc2c3c([nH]c2c1)CNCC3
Ki [8]: 240 nM
Ki [15]: 250 nM

Brc1ccc2c3c([nH]c2c1)C=NCC3
Ki [8]: 1330 nM
Ki [15]: 2100 nM

CC1=NCCc2c1[nH]c1cccc(OC(C)C)c21
Ki [8]: 470 nM
Ki [15]: 26 nM

Brc1cccc2c3c([nH]c12)CNCC3
Ki [8]: 22 nM
Ki [15]: 48 nM
Ki [20]: 21 nM

Brc1ccc2[nH]c3c(c2c1)CCNC3
Ki [8]: 500 nM
Ki [15]: 210 nM

COc1ccc2c3c([nH]c2c1)C=NCC3 [CGS-19281A]
Ki [8]: > 10000 nM
Ki [15]: > 10000 nM
Ki [20]: > 10000 nM

Brc1cccc2[nH]c3c(c12)CCNC3
Ki [8]: 180 nM
Ki [15]: 130 nM
Ki [20]: 80 nM

Brc1cccc2[nH]c3c(c12)CCN=C3
Ki [8]: 390 nM
Ki [15]: 140 nM

Brc1cccc2c3c([nH]c12)C=NCC3
Ki [8]: 110 nM
Ki [15]: 140 nM
Ki [20]: 115 nM

Brc1ccc2[nH]c3c(c2c1)CCN=C3
Ki [8]: 1720 nM
Ki [15]: 1200 nM

c1ccc2c3c([nH]c2c1)CNCC3 [TRYPTOLINE]
Ki [8]: 3800 nM
Ki [15]: > 10000 nM
Ki [20]: 3000 nM

COc1ccc2c(c1)[nH]c1c(C)nccc12 [HARMINE]
Ki [1]: > 10 µM
Ki [2]: > 10 µM
Ki [3]: 5500 nM
Ki [5]: > 10 µM
Ki [6]: 810 nM
Ki [22]: > 10 µM
Ki (Dopamine receptor): > 10 µM
Ki [23]: > 10 µM
Ki [7]: 2540 nM
Ki [9]: 9340 nM
Ki [10]: > 10 µM
Ki [11]: 7.79 µM
Ki [12]: > 10 µM
Ki [24]: 3.26 µM
Ki [13]: > 10 µM
Ki [14]: > 10 µM
Ki [16]: 1480 nM
Ki [17]: > 10 µM
Ki [18]: 1130 nM
Ki [19]: > 10 µM
Ki [21]: > 10 µM
Ki [25]: > 10 µM

C1=NCCc2c1[nH]c1ccccc21
Ki [26]: 2560 nM
Ki [15]: 1100 nM
Ki [27]: 2150 nM

C1=NCCc2c1[nH]c1cccc(OCc3ccccc3)c21
Ki [8]: 124 nM
Ki [15]: 200 nM

COc1ccc2[nH]c3c(c2c1)CCNC3
Ki [8]: 4780 nM
Ki [15]: 2190 nM
Ki [20]: 1400 nM

COc1cccc2c3c([nH]c12)C=NCC3
Ki [8]: 3240 nM
Ki [15]: 1350 nM
Ki [20]: 2550 nM

COc1cccc2[nH]c3c(c12)CCNC3
Ki [8]: 130 nM
Ki [15]: 140 nM
Ki [20]: 75 nM

COc1cccc2[nH]c3c(c12)CCN=C3
Ki [8]: 470 nM
Ki [15]: 75 nM
Ki [20]: 500 nM

COc1ccc2[nH]c3c(c2c1)CCN=C3C
Ki [1]: > 10 µM
Ki [2]: > 10 µM
Ki [3]: 2960 nM
Ki [22]: > 10 µM
Ki (Dopamine receptor): > 10 µM
Ki [23]: > 10 µM
Ki [9]: 924 nM
Ki [10]: > 10 µM
Ki [11]: 5.6 µM
Ki [24]: > 4.1 µM
Ki [14]: > 10 µM
Ki [16]: 1930 nM
Ki [19]: > 10 µM
Ki [21]: > 10 µM
Ki [25]: > 10 µM

CC(C)Oc1cccc2[nH]c3c(c12)CCN=C3
Ki [28]: 1410 nM

CC1=NCCc2c1[nH]c1ccccc21
Ki [1]: > 1.67 µM
Ki [2]: 0.845 µM
Ki [3]: 280 nM
Ki [22]: > 10 µM
Ki (Dopamine receptor): > 10 µM
Ki [23]: > 10 µM
Ki [9]: 1860 nM
Ki [10]: > 10 µM
Ki [11]: 1.15 µM
Ki [24]: > 10 µM
Ki [14]: > 10 µM
Ki [16]: 1450 nM
Ki [19]: > 10 µM
Ki [21]: > 10 µM
Ki [25]: > 10 µM

COc1cccc2c3c([nH]c12)CNCC3
Ki [8]: 640 nM
Ki [15]: 1270 nM
Ki [20]: 400 nM

COc1ccc2[nH]c3c(c2c1)CCN=C3
Ki [8]: 2370 nM
Ki [15]: 1170 nM
